Experimental data taken from patent US12077503B2, “Substituted cyclic amides and their use as herbicides” (FMC CORPORATION, priority 2015, dated 2024).
Where two headings read alike, the source gives them in different places.

Tests used:
Assay type in all cases: in vivo
[1] = tested on: ragweed (common ragweed, Ambrosia elatior); assay: Test A preemergence; conditions: Ambrosia artemisiifolia, pre-emergence, 240 h; for pest or weed control at 125 g/ha: 125 g ai/ha, Preemergence, visual injury rating after approximately 10 d, read-out: Ragweed plant response rating (0 to 100 scale, 0 is no effect, 100 is complete control); for pest or weed control at 500 g/ha: 500 g ai/ha, preemergence, visual injury rating about 10 d after treatment, 0 to 100 scale (0 no effect, 100 complete control), read-out: Ragweed plant response rating
Method in brief: (§1)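 Preemergence soil spray on seeded pots or post-emergence spray on 1–2 leaf plants, in loam–sand blend. Greenhouse ~10 d. Visual rating 0–100 against untreated plants.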

Kochia (Kochia scoparia) [2] = assay: Test A preemergence; conditions: Bassia scoparia, pre-emergence, 240 h; for pest or weed control at 125 g/ha: 125 g ai/ha, Preemergence, visual injury rating after approximately 10 d, read-out: Kochia plant response rating (0 to 100 scale, 0 is no effect, 100 is complete control); for pest or weed control at 500 g/ha: 500 g ai/ha, preemergence, visual injury rating about 10 d after treatment, 0 to 100 scale (0 no effect, 100 complete control), read-out: Kochia plant response rating
Method in brief: as §1

[3] = tested on: ryegrass, Italian (Italian ryegrass, Lolium multiflorum); assay: Test A preemergence; conditions: Lolium multiflorum, pre-emergence, 240 h; for pest or weed control at 125 g/ha: 125 g ai/ha, Preemergence, visual injury rating after approximately 10 d, read-out: Ryegrass, Italian plant response rating (0 to 100 scale, 0 is no effect, 100 is complete control); for pest or weed control at 500 g/ha: 500 g ai/ha, preemergence, visual injury rating about 10 d after treatment, 0 to 100 scale (0 no effect, 100 complete control), read-out: Ryegrass, Italian plant response rating
Method in brief: as §1

[4] = tested on: pigweed (Amaranthus retroflexus); assay: Test A preemergence; conditions: Amaranthus retroflexus, pre-emergence, 240 h; for pest or weed control at 125 g/ha: 125 g ai/ha, Preemergence, visual injury rating after approximately 10 d, read-out: Pigweed plant response rating (0 to 100 scale, 0 is no effect, 100 is complete control); for pest or weed control at 500 g/ha: 500 g ai/ha, preemergence, visual injury rating about 10 d after treatment, 0 to 100 scale (0 no effect, 100 complete control), read-out: Pigweed plant response rating
[5] = tested on: barnyardgrass (Echinochloa crus-galli); assay: Test A preemergence; conditions: Echinochloa crus-galli, pre-emergence, 240 h; for pest or weed control at 125 g/ha: 125 g ai/ha, Preemergence, visual injury rating after approximately 10 d, read-out: Barnyardgrass plant response rating (0 to 100 scale, 0 is no effect, 100 is complete control); for pest or weed control at 500 g/ha: 500 g ai/ha, preemergence, visual injury rating about 10 d after treatment, 0 to 100 scale (0 no effect, 100 complete control), read-out: Barnyardgrass plant response rating
Method in brief: as §1

[6] = tested on: ragweed (common ragweed, Ambrosia elatior); assay: Test A postemergence; conditions: Ambrosia artemisiifolia, post-emergence, 240 h; for pest or weed control at 125 g/ha: 125 g ai/ha
Method in brief: as §1

[7] = tested on: giant foxtail (Setaria faberii); assay: Test A postemergence; conditions: Setaria faberi, post-emergence, 240 h; for pest or weed control at 125 g/ha: 125 g ai/ha
Method in brief: as §1

[8] = tested on: wheat (Triticum aestivum); assay: Test A postemergence; conditions: Triticum aestivum, post-emergence, 240 h; for plant injury at 125 g/ha: 125 g ai/ha
Method in brief: as §1

Kochia (Kochia scoparia) [9] = assay: Test A postemergence; conditions: Bassia scoparia, post-emergence, 240 h; for pest or weed control at 125 g/ha: 125 g ai/ha
Method in brief: as §1

[10] = tested on: ryegrass, Italian (Italian ryegrass, Lolium multiflorum); assay: Test A postemergence; conditions: Lolium multiflorum, post-emergence, 240 h; for pest or weed control at 125 g/ha: 125 g ai/ha
Method in brief: as §1

[11] = tested on: Galium (catchweed bedstraw, Galium aparine); assay: Test A postemergence; conditions: Galium, post-emergence, 240 h; for pest or weed control at 125 g/ha: 125 g ai/ha
Method in brief: as §1

[12] = tested on: pigweed (Amaranthus retroflexus); assay: Test A postemergence; conditions: Amaranthus retroflexus, post-emergence, 240 h; for pest or weed control at 125 g/ha: 125 g ai/ha
Method in brief: as §1

[13] = tested on: blackgrass (Alopecurus myosuroides); assay: Test A postemergence; conditions: Alopecurus myosuroides, post-emergence, 240 h, read-out: Plant response rating, Blackgrass; for pest or weed control at 125 g/ha: 125 g ai/ha, Postemergence, visual injury after approximately 10 d, 0 to 100 scale where 0 is no effect and 100 is complete control
Method in brief: as §1

corn (Zea mays) = assay: Test A postemergence; conditions: Zea mays, post-emergence, 240 h; for Corn plant response rating (crop injury, 0 = no effect, 100 = complete kill) at 125 g/ha: 125 g ai/ha, Postemergence, visual injury after approximately 10 d, 0 to 100 scale where 0 is no effect and 100 is complete control
Method in brief: as §1

[14] = tested on: barnyardgrass (Echinochloa crus-galli); assay: Test A postemergence; conditions: Echinochloa crus-galli, post-emergence, 240 h, read-out: Plant response rating, Barnyardgrass; for pest or weed control at 125 g/ha: 125 g ai/ha, Postemergence, visual injury after approximately 10 d, 0 to 100 scale where 0 is no effect and 100 is complete control
Method in brief: as §1

[15] = 500 g ai/ha, postemergence, visual injury, 0 to 100 scale (0 no effect, 100 complete control), approx. 10 d

| SMILES | pest or weed control at 125 g/ha [1] [%] | pest or weed control at 500 g/ha [1] [%] | pest or weed control at 125 g/ha (Kochia (Kochia scoparia) [2]) [%] | pest or weed control at 500 g/ha (Kochia (Kochia scoparia) [2]) [%] | pest or weed control at 125 g/ha [3] [%] | pest or weed control at 500 g/ha [3] [%] | pest or weed control at 125 g/ha [4] [%] | pest or weed control at 500 g/ha [4] [%] | pest or weed control at 125 g/ha [5] [%] | pest or weed control at 500 g/ha [5] [%] | pest or weed control at 125 g/ha [13] [%] | Corn plant response rating (crop injury, 0 = no effect, 100 = complete kill) at 125 g/ha (corn (Zea mays)) [%] | pest or weed control at 125 g/ha [14] [%] | also measured |
| --- | --- | --- | --- | --- | --- | --- | --- | --- | --- | --- | --- | --- | --- | --- |
| O=C1NC[C@H](c2ccc3c(c2)OCO3)[C@H]1C(=O)Nc1ccc(F)c(F)c1F [Compound 1027] | 70 | 80 | 80 | 90 | 30 | 0 | 0 | 40 | 90 | 90 | 0 | 0 | 70 | pest or weed control at 125 g/ha ([6]; postemergence, visual injury on 0 to 100 scale (0 no effect, 100 complete control), approx. 10 d, read-out: Ragweed plant response rating): 0%; pest or weed control at 500 g/ha ([6]; 500 g ai/ha, postemergence, visual injury, 0 to 100 scale (0 no effect, 100 complete control), approx. 10 d, read-out: Plant response rating, Ragweed): 0%; pest or weed control at 125 g/ha ([7]; postemergence, visual injury on 0 to 100 scale (0 no effect, 100 complete control), approx. 10 d, read-out: Foxtail, Giant plant response rating): 20%; pest or weed control at 500 g/ha ([7]; 500 g ai/ha, postemergence, visual injury, 0 to 100 scale (0 no effect, 100 complete control), approx. 10 d, read-out: Plant response rating, Foxtail, Giant): 60%; plant injury at 125 g/ha ([8]; postemergence, visual injury on 0 to 100 scale (0 no effect, 100 complete control), approx. 10 d, read-out: Wheat plant response rating): 0%; plant injury at 500 g/ha ([8]; 500 g ai/ha, postemergence, visual injury, 0 to 100 scale (0 no effect, 100 complete control), approx. 10 d, read-out: Plant response rating, Wheat): 0%; pest or weed control at 125 g/ha (Kochia (Kochia scoparia) [9]; postemergence, visual injury on 0 to 100 scale (0 no effect, 100 complete control), approx. 10 d, read-out: Kochia plant response rating): 0%; pest or weed control at 500 g/ha (Kochia (Kochia scoparia) [9]; 500 g ai/ha, postemergence, visual injury, 0 to 100 scale (0 no effect, 100 complete control), approx. 10 d, read-out: Plant response rating, Kochia): 30%; pest or weed control at 125 g/ha ([10]; postemergence, visual injury on 0 to 100 scale (0 no effect, 100 complete control), approx. 10 d, read-out: Ryegrass, Italian plant response rating): 0%; pest or weed control at 500 g/ha ([10]; 500 g ai/ha, postemergence, visual injury, 0 to 100 scale (0 no effect, 100 complete control), approx. 10 d, read-out: Plant response rating, Ryegrass, Italian): 30%; pest or weed control at 125 g/ha ([11]; postemergence, visual injury on 0 to 100 scale (0 no effect, 100 complete control), approx. 10 d, read-out: Galium plant response rating): 50%; pest or weed control at 500 g/ha ([11]; 500 g ai/ha, postemergence, visual injury, 0 to 100 scale (0 no effect, 100 complete control), approx. 10 d, read-out: Plant response rating, Galium): 70%; pest or weed control at 125 g/ha ([12]; postemergence, visual injury on 0 to 100 scale (0 no effect, 100 complete control), approx. 10 d, read-out: Pigweed plant response rating): 0%; pest or weed control at 500 g/ha ([12]; 500 g ai/ha, postemergence, visual injury, 0 to 100 scale (0 no effect, 100 complete control), approx. 10 d, read-out: Plant response rating, Pigweed): 0%; pest or weed control at 500 g/ha [13, 15]: 40%; Corn plant response rating (crop injury, 0 = no effect, 100 = complete kill) at 500 g/ha (corn (Zea mays); [15]): 0%; pest or weed control at 500 g/ha [14, 15]: 90% |
| Cc1ccc([C@H]2CNC(=S)[C@@H]2C(=O)Nc2ccccc2F)cc1 (racemic) [Compound 945] | 0 | 0 | 0 | 0 | 0 | 0 | 0 | 0 | 60 | 90 | 0 | 0 | 80 | pest or weed control at 125 g/ha ([6]; Postemergence, visual injury after approximately 10 d, 0 to 100 scale where 0 is no effect and 100 is complete control, read-out: Plant response rating, Ragweed): 0%; pest or weed control at 125 g/ha ([7]; Postemergence, visual injury after approximately 10 d, 0 to 100 scale where 0 is no effect and 100 is complete control, read-out: Plant response rating, Foxtail, Giant): 0%; plant injury at 125 g/ha ([8]; Postemergence, visual injury after approximately 10 d, 0 to 100 scale where 0 is no effect and 100 is complete control, read-out: Plant response rating, Wheat): 0%; pest or weed control at 125 g/ha (Kochia (Kochia scoparia) [9]; Postemergence, visual injury after approximately 10 d, 0 to 100 scale where 0 is no effect and 100 is complete control, read-out: Plant response rating, Kochia): 0%; pest or weed control at 125 g/ha ([10]; Postemergence, visual injury after approximately 10 d, 0 to 100 scale where 0 is no effect and 100 is complete control, read-out: Plant response rating, Ryegrass, Italian): 0%; pest or weed control at 125 g/ha ([11]; Postemergence, visual injury after approximately 10 d, 0 to 100 scale where 0 is no effect and 100 is complete control, read-out: Plant response rating, Galium): 20%; pest or weed control at 125 g/ha ([12]; Postemergence, visual injury after approximately 10 d, 0 to 100 scale where 0 is no effect and 100 is complete control, read-out: Plant response rating, Pigweed): 0% |
